# Assay results reported in patent US8026221B2, “Method, composition and kit for antigenic binding of norwalk-like viruses” (Children's Hospital Medical Center, priority 2002, dated 2011).
# Tested on: NV
# Assay: Binding of synthetic histo-blood antigen with NLV after glycosidase digestion
# Parameters: species or system Norwalk Virus
# Details: after digestion with α-N-acetylgalactosaminidase
# Excerpt: Thus, the corresponding NLV could not be bound.
substance,measurement,value
GalNAc-α1→3 (Fuc-α1→2) Gal β-O-space) nBSA [A trisaccharide-BSA],Binding with NLV after removal of the antigenic determinant sugar epitope,losses binding
